Experimental data from patent US6509358B2, “Piperidino-phenyl amino squarate and thiadiazole dioxide beta-3 adrenergic receptor agonists” (Wyeth, priority 2000, dated 2003).

Tests used:
[1] = target: T1, human β3-AR (Homo sapiens, UniProt P13945); assay: cAMP accumulation (SPA) in CHO cells transfected with human β3-AR; format: cell-based; details: for EC50: CHO cells transfected with human β3-AR, cAMP, 30 min at 37° C., 10^-9 M to 10^-5 M; for IA(β3): maximal response of compound relative to maximal response of isoproterenol at 10^-5 M
T1 construct: Full-length β3-AR clones (402 amino acids) containing the last 6 amino acids of hβ3-AR; expressed in transfected cells; host or cells: CHO cells
T1 sequence (P13945 whole entry): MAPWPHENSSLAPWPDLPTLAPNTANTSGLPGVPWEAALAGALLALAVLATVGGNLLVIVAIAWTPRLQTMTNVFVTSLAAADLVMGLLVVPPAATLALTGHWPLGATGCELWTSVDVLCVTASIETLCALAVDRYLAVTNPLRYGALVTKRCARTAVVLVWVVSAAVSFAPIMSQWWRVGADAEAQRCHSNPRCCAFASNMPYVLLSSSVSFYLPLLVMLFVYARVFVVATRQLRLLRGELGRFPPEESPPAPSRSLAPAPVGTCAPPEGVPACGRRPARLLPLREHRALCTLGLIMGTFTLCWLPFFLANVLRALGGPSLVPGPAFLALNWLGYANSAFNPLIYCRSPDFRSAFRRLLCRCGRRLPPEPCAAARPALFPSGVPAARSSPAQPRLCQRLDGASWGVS
Experimental: Binding to the receptors was measured in Chinese Hamster ovary (CHO) cells that were transfected with β1-, β2-, and β3-AR's. The following briefly summarizes the procedures used and results obtained. Cloning of Human β3-AR Genomic DNA: cDNA was constructed by ligating four polymerase chain reaction (PCR) products using the following primers: an ATG-Narl fragment, sense primer [NT] and anti-sense primer [NT]; a […] fragment, [NT] as sense and [NT] as anti-sense primer; an […] fragment, sense primer [NT] and anti-sense primer [NT] and a Styl-TAG fragment, with sense primer [NT] and anti-sense primer [NT]. The corresponding primer sequences are described in Mantzoros, C. S., et.al., Diabetes, 1996, 45, 909-914. The four fragments are ligated into a pUC 18 plasmid (Gibco-BRL) and sequenced. Full-length β3-AR clones (402 amino acids) containing the last 6 amino acids of hβ3-AR are prepared with the β3-β[…]3 from ATTC. Binding Procedure: Clones expressing receptor levels of 70 to 110 fmoles/mg protein were used in the test procedures. CHO cells were grown in 24-well tissue culture plates in Dulbecco's Modified Eagle Media with 10% fetal bovine serum, MEM non-essential amino acids, Penicillin-Streptomycin and Geneticin. On the day of test procedure, growth medium was replaced with preincubation media (Dulbecco's Modified Eagle Media) and incubated for 30 minutes at 37° C. […] Isoproterenol (10^-5 M) was used as an internal standard for comparison of activity. Cells were incubated at 37° C. on a rocker for 30 min with the β3-AR transfected cells and 15 min with β1-AR and β2-AR transfected cells. Incubation was stopped by the addition of 0.2N HCl and the acid was neutralized with 2.5N NaOH. The plates, containing the cells and neutralized media, were stored at -20 ° C. until ready to test for cAMP using the SPA test kit (Amersham). Data Analysis and Results: Data collected from the SPA test procedure were analyzed as percent of the maximal isoproterenol response at 10^-5 M. Activity curves were plotted using the SAS statistical and graphics software. […] IA=% activity compound % activity isoproterenol

EC50 [1] [µM] | IA(β3) [1] | melting point | SMILES
0.042 | 0.9 | – | COC(=O)C(Cc1ccccc1)NC1=NS(=O)(=O)N=C1Nc1ccc(N2CCC(NCC(O)c3ccc(O)c(NS(C)(=O)=O)c3)CC2)cc1 [Example 6, Methyl 2-{[4-(4-{4-[((2R)-2-hydroxy-2-{4-hydroxy-3-[(methylsulfonyl)amino]phenyl}ethyl)amino]piperidin-1-yl}anilino)-1,1-dioxido-1,2,5-thiadiazol-3-yl]amino}-3-yl]amino}-3-phenylpropanoate]
– | – | 210 °C (dec.) | COC(=O)C(Cc1ccccc1)NC1=NS(=O)(=O)N=C1Nc1ccc(N2CCC(NCC(O)c3ccc(O)c(NS(C)(=O)=O)c3)CC2)cc1 (hydrate or solvate) [Example 6, Methyl 2-{[4-(4-{4-[((2R)-2-hydroxy-2-{4-hydroxy-3-[(methylsulfonyl)amino]phenyl}ethyl)amino]piperidin-1-yl}anilino)-1,1-dioxido-1,2,5-thiadiazol-3-yl]amino}-3-yl]amino}-3-phenylpropanoate]
– | – | 240 °C (dec.) | COC(=O)[C@@H](Cc1ccccc1)Nc1c(Nc2ccc(N3CCC(NC[C@H](O)c4ccc(O)c(NS(C)(=O)=O)c4)CC3)cc2)c(=O)c1=O (hydrate or solvate) [Example 2, Methyl (2R)-2-{[2-(4-{4-[((2R)-2-hydroxy-2-{4-hydroxy-3-[(methylsulfonyl)amino]phenyl}ethyl)amino]piperidin-1-yl}anilino)-3,4-dioxocyclobut-1-en-1-yl]amino}-3-phenylpropanoate]
0.2 | 0.80 | – | COC(=O)[C@@H](Cc1ccccc1)Nc1c(Nc2ccc(N3CCC(NC[C@H](O)c4ccc(O)c(NS(C)(=O)=O)c4)CC3)cc2)c(=O)c1=O [Example 2, Methyl (2R)-2-{[2-(4-{4-[((2R)-2-hydroxy-2-{4-hydroxy-3-[(methylsulfonyl)amino]phenyl}ethyl)amino]piperidin-1-yl}anilino)-3,4-dioxocyclobut-1-en-1-yl]amino}-3-phenylpropanoate]
0.099 | 0.40 | 120 °C (dec.) | COC(=O)CNC1=NS(=O)(=O)N=C1Nc1ccc(N2CCC(NC[C@H](O)c3ccc(O)c(NS(C)(=O)=O)c3)CC2)cc1 [Example 3, Methyl {[4-(4-{4-[((2R)-2-hydroxy-2-{4-hydroxy-3-[(methylsulfonyl)amino]phenyl}ethyl)amino]piperidin-1-yl}anilino)-1,1-dioxido1,2,5-thiadiazol-3-yl]amino}acetate]

The remaining lines, values behind:

SMILES | EC50 [1] [µM] | IA(β3) [1] | melting point
O=S1(=O)N=C(NCCc2ccc(F)cc2)C(Nc2ccc(N3CCC(NC[C@H](O)COc4ccc(O)cc4)CC3)cc2)=N1 [Example 5, 4-((2S)-3-[1-(4-{4-[2-(4-Fluoro-phenyl)-ethylamino]-1,1-dioxo-1H-1.lambda(6).-[1,2,5]thiadiazol-3-ylamino}-phenyl)-piperidin-4-ylamino]-2-hydroxy-propoxy}-phenol] | 0.008 | 1.0 | –
COc1ccc(CCNC2=NS(=O)(=O)N=C2Nc2ccc(N3CCC(NC[C@H](O)COc4ccc(O)cc4)CC3)cc2)cc1 [Example 1] | 0.633 | 0.69 | –
CCCCCCCCNC1=NS(=O)(=O)N=C1Nc1ccc(N2CCC(NC[C@H](O)COc3ccc(O)cc3)CC2)cc1 [Example 4, 4-((2S)-2-Hydroxy-3-{1-[4-(4-octylamino-1,1-dioxo-1H-1.lambda(6)-[1,2,5]thiadiazol-3ylamimo)-phenyl]-piperidin-4-ylamino}-propoxy)-phenol] | 0.004 | 0.96 | 198 to 204 °C
